Reference: US20210308308A1, “SYRINGE AND KIT FOR INTRAVESICAL USE” (Farco-Pharma GmbH, priority 2020, published 2021)
Structures can show the parent of a compound that is named as a salt.

Assay: stability of oxybutynin hydrochloride composition during terminal vapor sterilization in prefilled piston syringes

Compound: CCN(CC)CC#CCOC(=O)C(O)(c1ccccc1)C1CCCCC1 (centres unmarked) [oxybutynin hydrochloride, 4-diethylaminobut-2-inyl-2-cyclohexyl-2-hydroxy-2-phenyl ethanoate]
- further impurities after vapor sterilization (1 mg/ml, pH 4.0, polypropylene syringes with piston plugs of conventional rubber material, vapor sterilization): exceeding 0.5%
- stability during thermal sterilization (in words) (aqueous composition, polypropylene (disposable) syringes, piston plugs and closing caps of commonly used rubber materials): high instability or incompatibility
